# Measured values taken from patent US20060264463A1, “Chemical compounds” (priority 2003, published 2006).
# Biological target: T1, human H1 receptor (Homo sapiens, UniProt P35367)
# T1 construct: purchased Euroscreen SA, Brussels, Belgium ES-390-M; host or cells: CHO-K1
# Experiment: Histamine H1 receptor binding, competition displacement of [3H]-pyrilamine
# Conditions: displacement of 1 nM [3H]-pyrilamine; 2 μg membranes from recombinant CHO-K1 cells expressing the human H1 receptor; 1 hour at room temperature; read-out: H1 pKi (converted)
# T1 sequence (P35367 whole entry): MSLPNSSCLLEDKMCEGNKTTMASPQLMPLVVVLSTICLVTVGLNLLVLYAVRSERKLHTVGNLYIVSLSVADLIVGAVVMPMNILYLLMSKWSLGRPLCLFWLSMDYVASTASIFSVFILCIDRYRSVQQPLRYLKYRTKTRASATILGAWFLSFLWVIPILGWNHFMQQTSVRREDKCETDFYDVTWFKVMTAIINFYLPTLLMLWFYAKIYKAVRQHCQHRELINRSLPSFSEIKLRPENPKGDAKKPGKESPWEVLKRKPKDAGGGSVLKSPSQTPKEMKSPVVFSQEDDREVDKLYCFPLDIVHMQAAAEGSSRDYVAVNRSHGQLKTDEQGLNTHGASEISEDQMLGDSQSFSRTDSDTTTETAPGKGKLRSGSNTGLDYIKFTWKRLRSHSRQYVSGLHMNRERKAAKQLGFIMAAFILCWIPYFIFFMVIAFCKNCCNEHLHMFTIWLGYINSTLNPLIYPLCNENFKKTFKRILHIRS
row,Compound,Ki [nM]
1,"Cc1cc(Cl)ccc1OC1CCN(CC2CCN(c3ccccc3C(=O)O)CC2)CC1 [Example 49, 2-(4-{[4-(4-chloro-2-methylphenoxy)piperidin-1-yl]methyl}piperidin-1-yl)benzoic acid]",50.1
2,"N#Cc1ccc(OC2CCN(CC3CCN(c4ccccc4C(=O)O)CC3)CC2)cc1Cl [Example 34, 2-(4-{[4-(3-chloro-4-cyanophenoxy)piperidin-1-yl]methyl}piperidin-1-yl)benzoic acid]",631
3,"Cc1c(OC2CCN(CC3CCN(c4cccc(C(=O)O)c4)CC3)CC2)ccc(Cl)c1Cl [Example 96, 3-(4-{[4-(3,4-dichloro-2-methylphenoxy)piperidin-1-yl]methyl}piperidin-1-yl)benzoic acid]",20
4,"COC(=O)c1ccccc1N1CCC(CN2CCC(Oc3ccc(Cl)c(Cl)c3)CC2)CC1 [Example 1, methyl 2-[4-[[4-(3,4-dichlorophenoxy)-1-piperidinyl]methyl]-1-piperidinyl)-benzoate]",2.51
5,"O=C(O)c1cccc(N2CCC(CN3CCC(Cc4ccc(Cl)c(Cl)c4)CC3)CC2)c1 [Example 106, 3-(4-{[4-(3,4-dichlorobenzyl)piperidin-1-yl]methyl}piperidin-1-yl)benzoic acid]",20
6,"Cc1cc(OC2CCN(CC3CCN(c4c(F)cccc4C(=O)O)CC3)CC2)ccc1Cl [Example 68, 2-(4-{[4-(4-chloro-3-methylphenoxy)piperidin-1-yl]methyl}piperidin-1-yl)-3-fluorobenzoic acid]",15.8

# Other lines, results leading:
row,Ki [nM],Compound
1,79.4,"N#Cc1ccc(OC2CCN(CC3CCN(c4c(Cl)cccc4C(=O)O)CC3)CC2)cc1Cl [Example 48, 3-chloro-2-(4-{[4-(3-chloro-4-cyanophenoxy)piperidin-1-yl]methyl}piperidin-1-yl)benzoic acid]"
2,1.58,"Cc1cc(Cl)ccc1OC1CCN(CC2CCN(c3ccc([N+](=O)[O-])cc3C(=O)O)CC2)CC1 [Example 59, 2-(4-{[4-(4-chloro-2-methylphenoxy)piperidin-1-yl]methyl}piperidin-1-yl)-5-nitrobenzoic acid]"
3,2.51,"Cc1cc(OC2CCN(CC3CCN(c4cc(Cl)ccc4C(=O)O)CC3)CC2)ccc1Cl [Example 74, 4-chloro-2-(4-{[4-(4-chloro-3-methylphenoxy)piperidin-1-yl]methyl}piperidin-1-yl)benzoic acid]"
4,316,"COc1cccc(C(=O)O)c1N1CCC(CN2CCC(Oc3ccc(C#N)c(Cl)c3)CC2)CC1 [Example 55, 2-(4-{[4-(3-chloro-4-cyanophenoxy)piperidin-1-yl]methyl}piperidin-1-yl)-3-methoxybenzoic acid]"
5,10,"N#Cc1ccc(OC2CCN(CC3CCN(c4cc(Cl)ccc4C(=O)O)CC3)CC2)cc1Cl [Example 36, 4-chloro-2-(4-{[4-(3-chloro-4-cyanophenoxy)piperidin-1-yl]methyl}piperidin-1-yl)benzoic acid]"
6,7.94,"Cc1cc(C(=O)O)cc(N2CCC(CN3CCC(Oc4ccc(Cl)c(Cl)c4)CC3)CC2)c1 [Example 99, 3-(4-{[4-(3,4-dichlorophenoxy)piperidin-1-yl]methyl}piperidin-1-yl)-5-methylbenzoic acid]"
7,50.1,"O=C(O)c1ccccc1N1CCC(O)(CN2CCC(Oc3ccc(Cl)c(Cl)c3)CC2)CC1 [Example 63, 2-(4-{[4-(3,4-dichlorophenoxy)piperidin-1-yl]methyl}-4-hydroxypiperidin-1-yl)benzoic acid]"
8,5.01,"Cc1ccc(C(=O)O)c(N2CCC(CN3CCC(Oc4ccc(Cl)c(Cl)c4)CC3)CC2)n1 [Example 47, 2-(4-{[4-(3,4-dichlorophenoxy)piperidin-1-yl]methyl}piperidin-1-yl)-6-methylnicotinic acid]"
9,10,"CCOC(=O)c1cccc(N2CCC(CN3CCC(Cc4ccc(Cl)c(Cl)c4)CC3)CC2)c1 [Example 32, Ethyl 3-(4-{[4-(3,4-dichlorobenzyl)piperidin-1-yl]methyl}piperidin-1-yl)benzoate]"
